Experimental data from ChEMBL document CHEMBL3046568, “Synthesis, antimicrobial and DNA cleavage studies of some 4-aryloxymethylcoumarins obtained by reaction of 4-bromomethylcoumarins with bidentate nucleophiles” (2012).
Converted amounts (≈) assume the structure as drawn. The source made the active and inactive calls. No cut-off for these calls is given here.

How the values were obtained:
[1] = test system: Candida albicans; experiment: Antifungal activity against Candida albicans after 3 to 4 days by serial dilution method; type: functional; details: for MIC: Candida albicans
[2] = test system: Escherichia coli; experiment: Induction of Escherichia coli MTCC 1089 DNA cleavage at 50 ug after 2 hr by agarose gel electrophoresis
[3] = test system: Staphylococcus aureus; experiment: Induction of Staphylococcus aureus MTCC 3160 DNA cleavage at 50 ug after 2 hr by agarose gel electrophoresis
[4] = test system: Fusarium oxysporum; experiment: Antifungal activity against Fusarium oxysporum after 3 to 4 days by serial dilution method; type: functional; details: for MIC: Fusarium oxysporum
[5] = test system: Mucor fuscus; experiment: Antifungal activity against Mucor fuscus after 3 to 4 days by serial dilution method; type: functional; details: for MIC: Mucor fuscus
[6] = test system: Pseudomonas aeruginosa; experiment: Antibacterial activity against Pseudomonas aeruginosa MTCC 1034 after 24 hr by disk diffusion method; type: functional; details: for MIC: Pseudomonas aeruginosa, MTCC 1034, 24 h
[7] = test system: Staphylococcus aureus; experiment: Antibacterial activity against Staphylococcus aureus MTCC 3160 after 24 hr by disk diffusion method; type: functional; details: for MIC: Staphylococcus aureus, MTCC 3160, 24 h
[8] = test system: Aspergillus fumigatus; experiment: Antifungal activity against Aspergillus fumigatus after 3 to 4 days by serial dilution method; type: functional; details: for MIC: Aspergillus fumigatus
[9] = test system: Aspergillus niger; experiment: Antifungal activity against Aspergillus niger after 3 to 4 days by serial dilution method; type: functional; details: for MIC: Aspergillus niger
[10] = test system: Klebsiella pneumoniae; experiment: Antibacterial activity against Klebsiella pneumoniae MTCC 3384 after 24 hr by disk diffusion method; type: functional; details: for MIC: Klebsiella pneumoniae, MTCC 3384, 24 h
[11] = test system: Penicillium chrysogenum; experiment: Antifungal activity against Penicillium chrysogenum after 3 to 4 days by serial dilution method; type: functional; details: for MIC: Penicillium chrysogenum
[12] = test system: Bacillus subtilis; experiment: Antibacterial activity against Bacillus subtilis MTCC 297 after 24 hr by disk diffusion method; type: functional; details: for MIC: Bacillus subtilis, MTCC 297, 24 h
[13] = test system: Enterococcus faecalis; experiment: Antibacterial activity against Enterococcus faecalis MTCC 3382 after 24 hr by disk diffusion method; type: functional; details: for MIC: Enterococcus faecalis, MTCC 3382, 24 h
[14] = test system: Escherichia coli; experiment: Antibacterial activity against Escherichia coli MTCC 1089 after 24 hr by disk diffusion method; type: functional; details: for MIC: Escherichia coli, MTCC 1089, 24 h
[15] = test system: Aspergillus niger; experiment: Induction of Aspergillus niger DNA cleavage at 50 ug after 2 hr by agarose gel electrophoresis

SMILES | MIC [1] [µg/mL] | Activity [2] | Activity [3] | MIC [4] [µg/mL] | MIC [5] [µg/mL] | MIC [6] [µg/mL] | MIC [7] [µg/mL] | MIC [8] [µg/mL] | MIC [9] [µg/mL] | MIC [11] [µg/mL] | inhibition zone (IZ) [1] [mm] | inhibition zone (IZ) [4] [mm] | inhibition zone (IZ) [5] [mm] | inhibition zone (IZ) [6] [mm] | inhibition zone (IZ) [7] [mm] | inhibition zone (IZ) [8] [mm] | inhibition zone (IZ) [9] [mm] | inhibition zone (IZ) [10] [mm] | inhibition zone (IZ) [11] [mm] | inhibition zone (IZ) [12] [mm] | other results
CC(=O)Nc1cccc(OCc2cc(=O)oc3c2ccc2ccccc23)c1 | 12.5 (≈ 34.8 µM) | inactive | inactive | 50 (≈ 139 µM) | 12.5 (≈ 34.8 µM) | 6.25 (≈ 17.4 µM) | 25 (≈ 69.6 µM) | 12.5 (≈ 34.8 µM) | 6.25 (≈ 17.4 µM) | 12.5 (≈ 34.8 µM) | 16 | 11 | 16 | 19 | 12 | 17 | 19 | 15 | 18 | 13 | MIC [10]: 12.5 µg/mL (≈ 34.8 µM); MIC [12]: 12.5 µg/mL (≈ 34.8 µM); inhibition zone (IZ) [13]: 12 mm; MIC [13]: 25 µg/mL (≈ 69.6 µM); inhibition zone (IZ) [14]: 13 mm; MIC [14]: 25 µg/mL (≈ 69.6 µM); Activity [15]: inactive
CCN(CC)c1cccc(OCc2cc(=O)oc3ccc(C)cc23)c1 | 25 (≈ 74.1 µM) | inactive | inactive | 50 (≈ 148 µM) | 12.5 (≈ 37 µM) | 25 (≈ 74.1 µM) | 12.5 (≈ 37 µM) | 12.5 (≈ 37 µM) | 12.5 (≈ 37 µM) | 12.5 (≈ 37 µM) | 10 | 9 | 16 | 15 | 15 | 16 | 18 | 13 | 17 | 14 | MIC [12]: 12.5 µg/mL (≈ 37 µM); inhibition zone (IZ) [13]: 17 mm; MIC [13]: 6.25 µg/mL (≈ 18.5 µM); inhibition zone (IZ) [14]: 10 mm; MIC [14]: 50 µg/mL (≈ 148 µM); Activity [15]: inactive
CC(=O)Nc1cccc(OCc2cc(=O)oc3ccc(Br)cc23)c1 | 12.5 (≈ 32.2 µM) | Active | Active | 25 (≈ 64.4 µM) | 6.25 (≈ 16.1 µM) | 6.25 (≈ 16.1 µM) | 6.25 (≈ 16.1 µM) | 6.25 (≈ 16.1 µM) | 6.25 (≈ 16.1 µM) | 6.25 (≈ 16.1 µM) | 16 | 13 | 19 | 22 | 17 | 20 | 20 | 18 | 20 | 17 | MIC [10]: 6.25 µg/mL (≈ 16.1 µM); MIC [12]: 6.25 µg/mL (≈ 16.1 µM); inhibition zone (IZ) [13]: 18 mm; MIC [13]: 6.25 µg/mL (≈ 16.1 µM); inhibition zone (IZ) [14]: 14 mm; MIC [14]: 12.5 µg/mL (≈ 32.2 µM); Activity [15]: Active

Further lines, with some results ahead:

MIC [1] [µg/mL] | Activity [2] | Activity [3] | MIC [4] [µg/mL] | MIC [5] [µg/mL] | MIC [6] [µg/mL] | MIC [7] [µg/mL] | MIC [8] [µg/mL] | MIC [9] [µg/mL] | MIC [11] [µg/mL] | SMILES | inhibition zone (IZ) [1] [mm] | inhibition zone (IZ) [4] [mm] | inhibition zone (IZ) [5] [mm] | inhibition zone (IZ) [6] [mm] | inhibition zone (IZ) [7] [mm] | inhibition zone (IZ) [8] [mm] | inhibition zone (IZ) [9] [mm] | inhibition zone (IZ) [10] [mm] | inhibition zone (IZ) [11] [mm] | inhibition zone (IZ) [12] [mm] | other results
12.5 (≈ 23.7 µM) | inactive | inactive | 25 (≈ 47.5 µM) | 25 (≈ 47.5 µM) | 12.5 (≈ 23.7 µM) | 25 (≈ 47.5 µM) | 12.5 (≈ 23.7 µM) | 12.5 (≈ 23.7 µM) | 25 (≈ 47.5 µM) | O=c1cc(COc2cccc(OCc3cc(=O)oc4c3ccc3ccccc34)c2)c2ccc3ccccc3c2o1 | 13 | 14 | 14 | 17 | 11 | 15 | 15 | 16 | 14 | 11 | MIC [10]: 6.25 µg/mL (≈ 11.9 µM); MIC [12]: 25 µg/mL (≈ 47.5 µM); inhibition zone (IZ) [13]: 12 mm; MIC [13]: 25 µg/mL (≈ 47.5 µM); inhibition zone (IZ) [14]: 12 mm; MIC [14]: 25 µg/mL (≈ 47.5 µM); Activity [15]: inactive
12.5 (≈ 34.8 µM) | inactive | inactive | 25 (≈ 69.6 µM) | 25 (≈ 69.6 µM) | 12.5 (≈ 34.8 µM) | 12.5 (≈ 34.8 µM) | 12.5 (≈ 34.8 µM) | 6.25 (≈ 17.4 µM) | 12.5 (≈ 34.8 µM) | CC(=O)Nc1cccc(OCc2cc(=O)oc3ccc4ccccc4c23)c1 | 15 | 12 | 15 | 18 | 13 | 17 | 19 | 15 | 18 | 11 | MIC [10]: 12.5 µg/mL (≈ 34.8 µM); MIC [12]: 25 µg/mL (≈ 69.6 µM); inhibition zone (IZ) [13]: 10 mm; MIC [13]: 25 µg/mL (≈ 69.6 µM); inhibition zone (IZ) [14]: 13 mm; MIC [14]: 25 µg/mL (≈ 69.6 µM); Activity [15]: inactive
